Measured values published in patent US12528814B2, “Bifunctional degraders of interleukin-1 receptor-associated kinases and therapeutic use thereof” (NURIX THERAPEUTICS, INC., priority 2020, dated 2026).
pIC50: −log10 of the molar value.

Tests used:
IRAK4 [1] = biological target: T1, IRAK4 (Homo sapiens (Human), UniProt Q9NWZ3); assay: IRAK4 Biochemical HTRF Kinase Assay; conditions: Table 5; multiple runs; read-out: IRAK4 HTRF biochemical: IC50
How it was run: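 IC50 values derive from non-linear regression of sixteen concentrations in duplicate. Kinase reaction ran 90 min at ambient temperature after adding 5 μM STK-S1 substrate, 10 mM ATP and 10 mM MgCl2 (reaction-solution levels, pre-dilution to 10 μl); phospho-peptide detected by HTRF after 60 min.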
Target sequence in this assay (Q9NWZ3 whole entry, species assumed): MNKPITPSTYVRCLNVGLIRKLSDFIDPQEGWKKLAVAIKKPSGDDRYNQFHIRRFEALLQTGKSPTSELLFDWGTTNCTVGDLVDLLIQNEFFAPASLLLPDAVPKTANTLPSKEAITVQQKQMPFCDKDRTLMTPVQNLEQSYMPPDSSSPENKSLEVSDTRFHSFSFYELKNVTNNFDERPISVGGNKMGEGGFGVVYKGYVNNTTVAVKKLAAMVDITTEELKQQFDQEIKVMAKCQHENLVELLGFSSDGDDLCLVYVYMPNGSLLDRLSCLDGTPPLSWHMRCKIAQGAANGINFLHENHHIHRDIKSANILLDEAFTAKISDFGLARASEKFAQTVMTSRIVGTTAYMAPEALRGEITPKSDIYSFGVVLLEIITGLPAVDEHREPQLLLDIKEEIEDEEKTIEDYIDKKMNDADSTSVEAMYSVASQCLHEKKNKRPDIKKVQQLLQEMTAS

IRAK4 [2] = biological target: T1, IRAK4; assay: IRAK4 Degradation HiBiT Assay; conditions: multiple runs, HiBiT-tagged Jurkat cells, 4 hrs; for Dmax: Jurkat, read-out: Cellular IRAK4 HiBiT: Dmax, Table 5; for DC50: read-out: Cellular IRAK4 HiBiT: DC50, Table 5
Target sequence in this assay (Q9NWZ3 whole entry): as the sequence (Q9NWZ3 whole entry, species assumed) above

pIC50 (IRAK4 [1])	Dmax (IRAK4 [2])	DC50 (IRAK4 [2])	SMILES
8.72	69%	25.2 nM	CC(C)Nc1cc(-c2ccc3cc(C#N)cnn23)ncc1-c1nnc(N2CCN(C(=O)C3CCN(C(=O)CNc4cccc5c4C(=O)N(C4CCC(=O)NC4=O)C5=O)CC3)CC2)s1 (stereo not drawn) [Example 73, 7-(5-(5-(4-(1-((2-(2,6-dioxopiperidin-3-yl)-1,3-dioxoisoindolin-4-yl)glycyl)piperidine-4-carbonyl)piperazin-1-yl)-1,3,4-thiadiazol-2-yl)-4-(isopropylamino)pyridin-2-yl)pyrrolo[1,2-b]pyridazine-3-carbonitrile]
8.60	82%	28.9 nM	CC(C)Nc1cc(-c2ccc3cc(C#N)cnn23)ncc1-c1nnc(N2CCN(C3CCN(C(=O)CNc4cccc5c4C(=O)N(C4CCC(=O)NC4=O)C5=O)CC3)CC2)s1 (stereo not drawn) [Example 74, 7-(5-(5-(4-(1-((2-(2,6-dioxopiperidin-3-yl)-1,3-dioxoisoindolin-4-yl)glycyl)piperidin-4-yl)piperazin-1-yl)-1,3,4-thiadiazol-2-yl)-4-(isopropylamino)pyridin-2-yl)pyrrolo[1,2-b]pyridazine-3-carbonitrile]
9.10	111%	8.59 nM	CC(C)Nc1cc(-c2ccc3cc(C#N)cnn23)ncc1-c1nnc(N2CCN(C3CCN(C(=O)Cc4ccc5c(c4)CN(C4CCC(=O)NC4=O)C5=O)CC3)CC2)s1 (stereo not drawn) [Example 75, 7-(5-(5-(4-(1-(2-(2-(2,6-dioxopiperidin-3-yl)-1-oxoisoindolin-5-yl)acetyl)piperidin-4-yl)piperazin-1-yl)-1,3,4-thiadiazol-2-yl)-4-(isopropylamino)pyridin-2-yl)pyrrolo[1,2-b]pyridazine-3-carbonitrile]
9.10	100%	13.1 nM	CC(C)Nc1cc(-c2ccc3cc(C#N)cnn23)ncc1-c1nnc(N2CCN(C3CCN(C(=O)Cc4cccc5c4CN(C4CCC(=O)NC4=O)C5=O)CC3)CC2)s1 (stereo not drawn) [Example 76, 7-(5-(5-(4-(1-(2-(2-(2,6-dioxopiperidin-3-yl)-1-oxoisoindolin-4-yl)acetyl)piperidin-4-yl)piperazin-1-yl)-1,3,4-thiadiazol-2-yl)-4-(isopropylamino)pyridin-2-yl)pyrrolo[1,2-b]pyridazine-3-carbonitrile]
9.30	114%	15.1 nM	CC(C)Nc1cc(-c2ccc3cc(C#N)cnn23)ncc1-c1nnc(N2CCN(C3CCN(C(=O)c4ccc5c(c4)C(=O)N(C4CCC(=O)NC4=O)C5)CC3)CC2)s1 (stereo not drawn) [Example 77, 7-(5-(5-(4-(1-(2-(2,6-dioxopiperidin-3-yl)-3-oxoisoindoline-5-carbonyl)piperidin-4-yl)piperazin-1-yl)-1,3,4-thiadiazol-2-yl)-4-(isopropylamino)pyridin-2-yl)pyrrolo[1,2-b]pyridazine-3-carbonitrile]
8.62	74%	332 nM	Cc1ncsc1-c1ccc([C@H](C)NC(=O)[C@@H]2C[C@@H](O)CN2C(=O)[C@@H](NC(=O)CCOCCOCCOCCC(=O)N2CCN(c3nnc(-c4cnc(-c5ccc6cc(C#N)cnn56)cc4NC(C)C)s3)CC2)C(C)(C)C)cc1 [Example 78, (2S,4R)-1-((S)-2-(tert-butyl)-16-(4-(5-(6-(3-cyanopyrrolo[1,2-b]pyridazin-7-yl)-4-(isopropylamino)pyridin-3-yl)-1,3,4-thiadiazol-2-yl)piperazin-1-yl)-4,16-dioxo-7,10,13-trioxa-3-azahexadecanoyl)-4-hydroxy-N—((S)-1-(4-(4-methylthiazol-5-yl)phenyl)ethyl)pyrrolidine-2-carboxamide]
8.43	115%	313 nM	Cc1ncsc1-c1ccc(CNC(=O)[C@@H]2C[C@@H](O)CN2C(=O)[C@@H](NC(=O)C2(F)CC2)C(C)(C)C)c(OCC(=O)N2CCC(C(=O)N3CCN(c4nnc(-c5cnc(-c6ccc7cc(C#N)cnn67)cc5NC(C)C)s4)CC3)CC2)c1 [Example 80, (2S,4R)—N-(2-(2-(4-(4-(5-(6-(3-cyanopyrrolo[1,2-b]pyridazin-7-yl)-4-(isopropylamino)pyridin-3-yl)-1,3,4-thiadiazol-2-yl)piperazine-1-carbonyl)piperidin-1-yl)-2-oxoethoxy)-4-(4-methylthiazol-5-yl)benzyl)-1-((S)-2-(1-fluorocyclopropane-1-carboxamido)-3,3-dimethylbutanoyl)-4-hydroxypyrrolidine-2-carboxamide]
8.74	81%	64.9 nM	CC(C)Nc1cc(-c2ccc3cc(C#N)cnn23)ncc1-c1nnc(N2CCC3(CCN(Cc4ccc5c(c4)C(=O)N(C4CCC(=O)NC4=O)C5=O)CC3)CC2)s1 (stereo not drawn) [Example 81, 7-(5-(5-(9-((2-(2,6-dioxopiperidin-3-yl)-1,3-dioxoisoindolin-5-yl)methyl)-3,9-diazaspiro[5.5]undecan-3-yl)-1,3,4-thiadiazol-2-yl)-4-(isopropylamino)pyridin-2-yl)pyrrolo[1,2-b]pyridazine-3-carbonitrile]
8.51	61%	72.8 nM	CC(C)Nc1cc(-c2ccc3cc(C#N)cnn23)ncc1-c1nnc(N2CCC3(CCN(C(=O)CNc4cccc5c4C(=O)N(C4CCC(=O)NC4=O)C5=O)CC3)CC2)s1 (stereo not drawn) [Example 82, 7-(5-(5-(9-((2-(2,6-dioxopiperidin-3-yl)-1,3-dioxoisoindolin-4-yl)glycyl)-3,9-diazaspiro[5.5]undecan-3-yl)-1,3,4-thiadiazol-2-yl)-4-(isopropylamino)pyridin-2-yl)pyrrolo[1,2-b]pyridazine-3-carbonitrile]
8.17	109%	319 nM	Cc1ncsc1-c1ccc(CNC(=O)[C@@H]2C[C@@H](O)CN2C(=O)[C@@H](NC(=O)C2(F)CC2)C(C)(C)C)c(OCC(=O)N2CCC3(CC2)CCN(c2nnc(-c4cnc(-c5ccc6cc(C#N)cnn56)cc4NC(C)C)s2)CC3)c1 [Example 83, (2S,4R)—N-(2-(2-(9-(5-(6-(3-cyanopyrrolo[1,2-b]pyridazin-7-yl)-4-(isopropylamino)pyridin-3-yl)-1,3,4-thiadiazol-2-yl)-3,9-diazaspiro[5.5]undecan-3-yl)-2-oxoethoxy)-4-(4-methylthiazol-5-yl)benzyl)-1-((S)-2-(1-fluorocyclopropane-1-carboxamido)-3,3-dimethylbutanoyl)-4-hydroxypyrrolidine-2-carboxamide]

SMILES	pIC50 (IRAK4 [1])	Dmax (IRAK4 [2])	DC50 (IRAK4 [2])
Cc1ncsc1-c1ccc(CNC(=O)[C@@H]2C[C@@H](O)CN2C(=O)[C@@H](NC(=O)C2(F)CC2)C(C)(C)C)c(OCCCC(=O)N2CCN(c3nnc(-c4cnc(-c5ccc6cc(C#N)cnn56)cc4NC(C)C)s3)CC2)c1 [Example 79, (2S,4R)—N-(2-(4-(4-(5-(6-(3-cyanopyrrolo[1,2-b]pyridazin-7-yl)-4-(isopropylamino)pyridin-3-yl)-1,3,4-thiadiazol-2-yl)piperazin-1-yl)-4-oxobutoxy)-4-(4-methylthiazol-5-yl)benzyl)-1-((S)-2-(1-fluorocyclopropane-1-carboxamido)-3,3-dimethylbutanoyl)-4-hydroxypyrrolidine-2-carboxamide]	8.01	113%	137 nM
